In PMC13224100, “Esterase-Responsive Mitochondria-Targeted Hydropersulfide Donors Mitigate Doxorubicin Cardiotoxicity While Preserving Anticancer Activity” (Angewandte Chemie (International ed. in English), 2025):

Experiments:
Format in all cases: cell-based
H9c2 cells [1] = assay: Intracellular RSSH analysis by LC-MS/MS after subcellular fractionation; details: 200 μM, 2 h; for HPE-AM adducts of Cys-SSH and GSSH, cytoplasmic fraction: vs vehicle; for Cys-SH and GSH in mitochondria: did not reach statistical significance
Experimental: After confirming efficient esterase-triggered RSSH generation from these newly developed precursors in PBS (pH 7.4), we next evaluated their ability to release RSSH in cardiac cells. […] H9c2 cells were treated with each donor (200 μM, 2 h), followed by subcellular fractionation using differential centrifugation to isolate cytoplasmic and mitochondrial fractions. Each fraction was subsequently incubated with the RSSH-trapping agent HPE-IAM (5 mM in methanol) to alkylate and stabilize transient RSSH species. The resulting adducts were analyzed by LC–MS/MS.[40, 41] In the cytoplasmic fraction, both donors increased HPE-AM adducts of Cys-SSH and GSSH, with APT-1 showing higher levels than APT-1-TPP (Figure 3a,b).
Figure 3. Measurement of cysteine hydropersulfide (Cys-SSH) and glutathione hydropersulfide (GSSH) in cytoplasm (a and b) and mitochondria (c and d) of H9c2 cells. Cells were treated with APT-1 (200 μM), APT-1-TPP (200 μM), or vehicle (0.01% DMSO in serum-free medium) for 2 h, followed by subcellular fractionation. Each fraction was incubated with HPE-IAM (5 mM, 30 min) to trap RSSH species prior to LC–MS/MS analysis. Data are mean ± SEM (n = 3); *p ≤ 0.05, **p ≤ 0.01. […]
Intracellular RSSH Analysis by LC-MS
H9c2 cells were cultured in 150-mm dishes to 80–90% confluency and treated for 2 h with either control medium (FBS-free DMEM, 0.01% DMSO) or 200 μM RSSH donors (FBS-free DMEM with APT-1 or APT-1-TPP). Cells were washed two times with warm PBS, collected by scraping, and centrifuged at 1,000 × g for 10 min at 4 °C (Sorvall ST 8R, ThermoFisher). Pellets were resuspended in 0.6 mL sucrose buffer; ¼ was reserved for BCA assay and ¾ used for fractionation. Cells were lysed on ice by 20 passages through a 26-G needle and centrifuged at 1,500 × g for 10 min at 4 °C (Z 216 MK, HERMLE). Pellets (nuclear/debris fraction) were collected, and supernatants were centrifuged at 12,000 × g for 10 min at 4 °C. Pellets (mitochondrial fraction) and supernatants (cytoplasmic fraction) were collected. Each of these fractions were resuspended in methanol containing 5 mM HPE-IAM, sonicated (3 × 10 s on/10 s off, Branson Sonifier SFX150), incubated at 37 °C for 30 min, and centrifuged at 16,000 × g for 10 min at 4 °C.
Supernatants were analyzed by MRM LC-MS/MS (Ultivo Triple Quadrupole, Agilent) using a Poroshell 120 EC-C18 column (4.6 × 100 mm, 2.7 μm; Agilent) at 30 °C, 0.6 mL/min, with the following gradient (solvent A: water + 0.1% TFA; solvent B: acetonitrile + 0.1% TFA): 0–1.5 min, […]
min, 97% A. Injection volume: 10 μL. Experiments were performed in triplicate (n = 3 biological replicates). Data are shown as mean ± SEM. […]
Ta b l e S1. MRM parameters for LC-MS/MS
Analyte Polarity Precursor ion Product ion Collision energy
Figure S21. Measurement of H2S2, and H2S in cytoplasm (A, B) and mitochondria (C,D) of H9c2 cells treated with APT-1 (200 µM) APT-1-TPP (200 µM), or vehicle (0.01% DMSO in serum-free medium) for 2 h. Data are mean ± SEM (n = 3); *p ≤ 0.05, **p ≤ 0.01.
Figure S22. Measurement of Cys-SH and GSH in cytoplasm (A, B) and mitochondria (C, D) of H9c2 cells […]
Cytotoxicity Assessment of Hydropersulfide Precursors in H9c2 and HepG2 cells Cell viability was measured using the Cell Counting Kit-8 (CCK-8, Dojindo).[7] H9c2 cardiomyoblast and HepG2 cells were seeded at a density of 8 × 10³ cells/well in a 96-well plate (flat-bottom, tissue culture-treated). […]

HepG2 cells = assay: Intracellular ATP levels (CellTiter-Glo) under DOX; details: donor 25 μM, 4 h pretreatment, DOX 5 μM 24 h
Experimental: (§1) Figure 6. a) Basal sulfane sulfur (SS) levels in H9c2 cardiomyocyte, MDA-MB-468, MCF-7, and HepG2 cell lines as detected by SSP4 fluorescence. b) Representative images and c) basal levels of mitochondrial membrane potential (MMP) in H9c2 and cancer cells (MDA-MB-468, MCF-7, and HepG2). d) Impact of APT-1 (25 μM) or APT-1-TPP (25 μM) on MMP in DOX (5 μM)-treated (d) H9c2 and e) HepG2 cells. Impact of APT-1 (25 μM) and APT-1-TPP (25 μM) on ATP levels in DOX (5 μM)-treated f) H9c2 and g) HepG2 cells. Results are expressed as mean ± SEM, n = 3–6; *P < 0.05, **P < 0.01, ***P < 0.001, ****P < 0.0001. Significances in (a) and (c) are presented with respect to H9c2 cells.
(§2) We then examined how RSSH donors influence MMP during DOX exposure. As expected, DOX alone induced mitochondrial depolarization in H9c2 cells, reducing MMP to ca. 50% of control (Figure 6d). […] To complement these observations, we quantified intracellular ATP levels as a functional readout of mitochondrial activity. […]
(§3) Briefly, H9c2 cells and HepG2 cells were seeded in 96-well white-bottom plate (Alkali Scientific, SKU:TPW9096, TC-treated) at 5000 cells/well. After treatment (Ctrl, 5 μM DOX alone, 4 h pretreatment of 25 μM APT-1 + 24 h cotreatment with 5 μM DOX, and 4 h pretreatment of 25 μM APT-1-TPP + 24 h cotreatment with 5 μM DOX, in clear DMEM medium with 10% FBS), cells were equilibrated at rt for 30 min before CellTiter-Glo® reagent was added to each well. Plates were then placed on an orbital shaker for 2 min and incubated at rt for another 20 min.
(§4) Chemiluminescence was measured using Tecan plate reader (SPARK Part No. 30124664 Version 1.7, serial No. 1909010319). Cellular AT P concentration was calculated based on the AT P calibration curve and normalized to cell count. […] Each treatment condition was performed in 6 technical replicates per biological replicate, and the experiment was independently repeated three times (n = 3 biological replicates).
(§5) Data are presented as mean ± SEM. […]

H9c2 cells [2] = assay: Intracellular ATP levels (CellTiter-Glo) under DOX; details: donor 25 μM, 4 h pretreatment, DOX 5 μM 24 h
Experimental: as §1, §2, §3, §4, §5

Row | Structure (SMILES) | Cys-SH and GSH in the cytoplasm (H9c2 cells [1]) | H2S and H2S2 levels in mitochondria (H9c2 cells [1]) | Cys-SSH and GSSH adducts, mitochondrial fraction (H9c2 cells [1]; compared with APT-1) | HPE-AM adducts of Cys-SSH and GSSH, cytoplasmic fraction (H9c2 cells [1]) | Cys-SH and GSH in mitochondria (H9c2 cells [1]) | effect on DOX-induced ATP depletion (HepG2 cells) | effect on DOX-reduced ATP levels (H9c2 cells [2]) | H2S and H2S2 levels in the cytoplasm (H9c2 cells [1])
1 | CC(=O)NC(C(=O)N(C)CCC[P+](c1ccccc1)(c1ccccc1)c1ccccc1)C(C)(C)SSC(=O)N(C)CCOC(C)=O (stereo not shown) [APT-1-TPP] | significant increases | elevated | substantially higher levels | increased | modest increases | neither donor rescued DOX-induced ATP depletion | restored | 
2 | COC(=O)C(NC(C)=O)C(C)(C)SSC(=O)N(C)CCOC(C)=O (stereo not shown) [APT-1] | significant increases |  |  | increased | modest increases | neither donor rescued DOX-induced ATP depletion | restored | elevated
